According to patent publication US12286443B2, “Bycyclic JAK inhibitors and uses thereof” (Insilico Medicine IP Limited, priority 2019, dated 2025):

How the values were obtained:
Assay type in all cases: biochemical
JAK1 = molecular target: T1, JAK1 (Homo sapiens, UniProt P23458); test: Inhibition of JAK1 kinase, LANCE Ultra TR-FRET assay; settings: 2 nM JAK1, 2x ATP 76 μM, 15 min pre-incubation, 90 min reaction, 23° C.
T1 construct: purchased Invitrogen PV4775
Protocol: (§1) Exemplary compounds were assayed to determine potency in inhibiting activity of JAK1-3 and TYK2 kinases by determining IC50 values.
(§2) The sources of test materials and equipment are as follows: JAK1 (Invitrogen, Cat. No PV4775), JAK2 (Invitrogen, Cat. No PV4210), JAK3 (Invitrogen, Cat. No PV4080), TYK2 (Invitrogen, Cat. No PR8440C), ATP (Sigma, Cat. No. A7699-1G), DMSO (Sigma, Cat. No. D2650), DTT (Sigma, Cat. No. 43815), 384 wells_compound plate (Greiner, Cat. No. 781280), 384 wells_assay plate (Perkin Elmer, Cat. No. 6007299), LANCE Ultra ULight™-JAK-1 peptide (Perkin Elmer, Cat. No. TRF0121), LANCET™ Eu-W1024 Anti-phosphotyrosine (PT66) (Perkin Elmer, Cat. No. AD0069), LANCET™ Detection Buffer(Perkin Elmer, Cat. No. CR97-100).
(§3) The concentrations of test compounds varied from 100 μM to 1.7 nM with 3-fold dilution, 11 points, in duplicates while the concentrations of the reference compound, Tofacitinib, varied from 1 μM to 0.017 nM with 3-fold dilution, 11 points, in duplicates.
(§4) The assay buffer contained 50 mM HEPES (pH 7.5), 0.01% Brij-35, 10 mM MgCl2, 1 mM EDTA, 2 mM DTT. Incubations were carried out at 23° C.
(§5) Prior to the assay, enzyme, peptide substrate and serially diluted test compounds were pre-incubated together in assay buffer (5 μL) for 15 minutes (peptide substrate concentration: 50 nM; JAK enzyme concentrations: 2 nM JAK1; […]; […] and 4 nM TYK2). And the assay was initiated by the addition of 5 μL assay buffer containing 2× final ATP concentration (these are the 2×ATP concentrations: 76 μM JAK1; 24 μM JAK2; 8 μM JAK3 and 30 μM TYK2). Following the 90-minute incubation, antibody conjugated with Eu is dissolved in detection buffer to add into wells and then incubated for 60 minutes. The 10 μL detection buffer contains EDTA to stop the enzymatic reaction. The plate is analyzed by Perkin Elmer Envision on TR-FRET mode. The high ratio of 665/615 represents no inhibition of kinase reaction while the low ratio of 665/615 represents complete inhibition of kinase reaction.
(§6) Curves are fit by XLFIT5 as inhibition rate % vs. log [compound concentration] using 4 parameters logistic model 205.
(§7) In the table, “A” indicates an IC50 of less than 100 nM, “B” indicates an IC50 range from 100 nM to 500 nM; “C” indicates an IC50 range from 500 nM to 2 μM; and “D” indicates an IC50 greater than 2 μM. Also, “na” indicates data is not available.

JAK3 = molecular target: T2, JAK3 (Homo sapiens, UniProt P52333); test: Inhibition of JAK3 kinase, LANCE Ultra TR-FRET assay; settings: 2x ATP 8 μM, 15 min pre-incubation, 90 min reaction, 23° C.
T2 construct: purchased Invitrogen PV4080
T2 sequence (P52333 1-1124): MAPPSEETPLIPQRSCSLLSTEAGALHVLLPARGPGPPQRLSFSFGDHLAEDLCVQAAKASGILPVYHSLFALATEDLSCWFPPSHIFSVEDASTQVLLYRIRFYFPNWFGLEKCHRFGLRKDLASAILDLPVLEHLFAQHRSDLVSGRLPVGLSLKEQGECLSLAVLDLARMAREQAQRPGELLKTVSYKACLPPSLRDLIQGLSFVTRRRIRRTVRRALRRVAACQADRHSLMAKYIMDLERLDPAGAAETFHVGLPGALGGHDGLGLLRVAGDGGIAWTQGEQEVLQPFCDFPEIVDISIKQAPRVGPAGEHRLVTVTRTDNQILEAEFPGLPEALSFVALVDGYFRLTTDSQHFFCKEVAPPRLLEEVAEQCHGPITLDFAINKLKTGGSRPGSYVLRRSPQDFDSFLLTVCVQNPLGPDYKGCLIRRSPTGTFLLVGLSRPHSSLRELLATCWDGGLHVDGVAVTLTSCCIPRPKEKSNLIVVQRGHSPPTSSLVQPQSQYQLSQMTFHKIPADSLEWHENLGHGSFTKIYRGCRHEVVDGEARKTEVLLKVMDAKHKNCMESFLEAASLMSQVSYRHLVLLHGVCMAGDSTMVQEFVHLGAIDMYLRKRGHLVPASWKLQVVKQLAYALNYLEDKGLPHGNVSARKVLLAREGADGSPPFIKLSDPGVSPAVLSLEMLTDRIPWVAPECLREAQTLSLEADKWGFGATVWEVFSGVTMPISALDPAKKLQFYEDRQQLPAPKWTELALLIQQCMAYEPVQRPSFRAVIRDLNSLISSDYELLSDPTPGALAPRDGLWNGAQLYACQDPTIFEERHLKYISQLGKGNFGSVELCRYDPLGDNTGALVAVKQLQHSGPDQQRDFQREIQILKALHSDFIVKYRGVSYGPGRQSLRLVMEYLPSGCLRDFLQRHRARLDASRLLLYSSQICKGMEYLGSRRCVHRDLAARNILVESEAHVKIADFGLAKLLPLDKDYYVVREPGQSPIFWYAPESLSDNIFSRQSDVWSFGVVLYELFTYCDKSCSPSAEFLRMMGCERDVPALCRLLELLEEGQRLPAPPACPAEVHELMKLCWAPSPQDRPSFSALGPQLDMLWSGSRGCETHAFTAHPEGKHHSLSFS
Protocol: as §1, §2, §3, §4, §5, §6, §7

TYK2 = molecular target: T3, TYK2 (Homo sapiens, UniProt P29597); test: Inhibition of TYK2 kinase, LANCE Ultra TR-FRET assay; settings: 4 nM TYK2, 2x ATP 30 μM, 15 min pre-incubation, 90 min reaction, 23° C., read-out: tyk IC50
T3 construct: purchased Invitrogen PR8440C
T3 sequence (P29597 whole entry): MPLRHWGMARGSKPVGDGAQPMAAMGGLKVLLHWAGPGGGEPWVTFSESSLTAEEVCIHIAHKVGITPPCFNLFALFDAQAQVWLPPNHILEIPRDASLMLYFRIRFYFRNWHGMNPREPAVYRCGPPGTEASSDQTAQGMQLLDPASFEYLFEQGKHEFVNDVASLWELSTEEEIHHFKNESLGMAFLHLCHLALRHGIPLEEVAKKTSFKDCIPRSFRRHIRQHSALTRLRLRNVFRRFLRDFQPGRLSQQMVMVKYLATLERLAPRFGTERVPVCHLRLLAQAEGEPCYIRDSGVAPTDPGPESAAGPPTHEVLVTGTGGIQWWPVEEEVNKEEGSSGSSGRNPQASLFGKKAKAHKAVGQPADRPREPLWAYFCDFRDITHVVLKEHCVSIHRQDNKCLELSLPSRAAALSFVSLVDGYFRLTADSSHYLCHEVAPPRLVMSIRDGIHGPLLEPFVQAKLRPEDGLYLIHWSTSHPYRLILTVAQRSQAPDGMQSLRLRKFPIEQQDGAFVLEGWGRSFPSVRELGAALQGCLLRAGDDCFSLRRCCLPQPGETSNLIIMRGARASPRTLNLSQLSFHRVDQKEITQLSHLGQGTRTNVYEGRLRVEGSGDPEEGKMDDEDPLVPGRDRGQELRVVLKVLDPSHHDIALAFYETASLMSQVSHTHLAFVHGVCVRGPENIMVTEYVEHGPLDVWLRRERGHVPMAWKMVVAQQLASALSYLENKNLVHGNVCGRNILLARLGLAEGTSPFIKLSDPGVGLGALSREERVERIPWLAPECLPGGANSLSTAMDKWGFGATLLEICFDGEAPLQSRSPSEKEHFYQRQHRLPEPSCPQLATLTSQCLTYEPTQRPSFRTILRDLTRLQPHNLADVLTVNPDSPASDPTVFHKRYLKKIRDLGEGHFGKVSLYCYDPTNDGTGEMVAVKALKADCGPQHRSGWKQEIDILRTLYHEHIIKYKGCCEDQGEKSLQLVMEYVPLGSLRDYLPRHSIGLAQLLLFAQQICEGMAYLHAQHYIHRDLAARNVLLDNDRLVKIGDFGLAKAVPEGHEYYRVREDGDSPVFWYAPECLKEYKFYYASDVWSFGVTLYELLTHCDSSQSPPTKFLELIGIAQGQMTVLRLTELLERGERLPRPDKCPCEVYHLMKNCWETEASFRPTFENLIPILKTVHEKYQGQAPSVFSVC
Protocol: as §1, §2, §3, §4, §5, §6, §7

JAK2 = molecular target: T4, JAK2 (Homo sapiens, UniProt O60674); test: Inhibition of JAK2 kinase, LANCE Ultra TR-FRET assay; settings: 2x ATP 24 μM, 15 min pre-incubation, 90 min reaction, 23° C.
T4 construct: purchased Invitrogen PV4210
T4 sequence (O60674 whole entry): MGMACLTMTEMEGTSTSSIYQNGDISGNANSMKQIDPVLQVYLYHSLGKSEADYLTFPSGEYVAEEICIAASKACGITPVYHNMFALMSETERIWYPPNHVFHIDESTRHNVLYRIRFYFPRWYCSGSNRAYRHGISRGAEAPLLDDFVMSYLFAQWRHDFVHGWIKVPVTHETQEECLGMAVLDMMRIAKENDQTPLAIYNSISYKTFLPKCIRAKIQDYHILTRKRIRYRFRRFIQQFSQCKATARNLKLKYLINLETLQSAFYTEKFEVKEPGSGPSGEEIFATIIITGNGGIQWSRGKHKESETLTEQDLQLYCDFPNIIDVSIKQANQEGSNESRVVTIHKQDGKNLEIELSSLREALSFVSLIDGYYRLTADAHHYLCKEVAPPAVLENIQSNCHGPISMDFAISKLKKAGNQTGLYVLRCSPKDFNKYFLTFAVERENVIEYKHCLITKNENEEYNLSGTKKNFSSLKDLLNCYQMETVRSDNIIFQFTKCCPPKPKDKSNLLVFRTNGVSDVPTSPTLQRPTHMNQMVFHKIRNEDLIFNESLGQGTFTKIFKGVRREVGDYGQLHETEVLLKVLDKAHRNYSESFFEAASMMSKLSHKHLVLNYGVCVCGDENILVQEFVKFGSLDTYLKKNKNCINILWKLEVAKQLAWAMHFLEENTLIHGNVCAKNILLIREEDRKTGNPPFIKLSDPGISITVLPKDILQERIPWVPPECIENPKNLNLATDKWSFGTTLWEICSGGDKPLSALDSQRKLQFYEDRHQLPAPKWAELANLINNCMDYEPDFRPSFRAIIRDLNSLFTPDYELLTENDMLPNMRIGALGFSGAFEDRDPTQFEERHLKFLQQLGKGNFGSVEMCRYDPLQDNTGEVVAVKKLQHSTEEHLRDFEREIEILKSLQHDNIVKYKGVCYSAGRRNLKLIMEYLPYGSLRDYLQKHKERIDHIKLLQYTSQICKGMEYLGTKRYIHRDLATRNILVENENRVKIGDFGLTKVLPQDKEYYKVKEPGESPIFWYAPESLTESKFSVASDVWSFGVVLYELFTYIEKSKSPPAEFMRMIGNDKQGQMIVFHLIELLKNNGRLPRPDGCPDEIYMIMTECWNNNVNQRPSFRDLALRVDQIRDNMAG
Protocol: as §1, §2, §3, §4, §5, §6, §7

T1 sequence (P23458 whole entry): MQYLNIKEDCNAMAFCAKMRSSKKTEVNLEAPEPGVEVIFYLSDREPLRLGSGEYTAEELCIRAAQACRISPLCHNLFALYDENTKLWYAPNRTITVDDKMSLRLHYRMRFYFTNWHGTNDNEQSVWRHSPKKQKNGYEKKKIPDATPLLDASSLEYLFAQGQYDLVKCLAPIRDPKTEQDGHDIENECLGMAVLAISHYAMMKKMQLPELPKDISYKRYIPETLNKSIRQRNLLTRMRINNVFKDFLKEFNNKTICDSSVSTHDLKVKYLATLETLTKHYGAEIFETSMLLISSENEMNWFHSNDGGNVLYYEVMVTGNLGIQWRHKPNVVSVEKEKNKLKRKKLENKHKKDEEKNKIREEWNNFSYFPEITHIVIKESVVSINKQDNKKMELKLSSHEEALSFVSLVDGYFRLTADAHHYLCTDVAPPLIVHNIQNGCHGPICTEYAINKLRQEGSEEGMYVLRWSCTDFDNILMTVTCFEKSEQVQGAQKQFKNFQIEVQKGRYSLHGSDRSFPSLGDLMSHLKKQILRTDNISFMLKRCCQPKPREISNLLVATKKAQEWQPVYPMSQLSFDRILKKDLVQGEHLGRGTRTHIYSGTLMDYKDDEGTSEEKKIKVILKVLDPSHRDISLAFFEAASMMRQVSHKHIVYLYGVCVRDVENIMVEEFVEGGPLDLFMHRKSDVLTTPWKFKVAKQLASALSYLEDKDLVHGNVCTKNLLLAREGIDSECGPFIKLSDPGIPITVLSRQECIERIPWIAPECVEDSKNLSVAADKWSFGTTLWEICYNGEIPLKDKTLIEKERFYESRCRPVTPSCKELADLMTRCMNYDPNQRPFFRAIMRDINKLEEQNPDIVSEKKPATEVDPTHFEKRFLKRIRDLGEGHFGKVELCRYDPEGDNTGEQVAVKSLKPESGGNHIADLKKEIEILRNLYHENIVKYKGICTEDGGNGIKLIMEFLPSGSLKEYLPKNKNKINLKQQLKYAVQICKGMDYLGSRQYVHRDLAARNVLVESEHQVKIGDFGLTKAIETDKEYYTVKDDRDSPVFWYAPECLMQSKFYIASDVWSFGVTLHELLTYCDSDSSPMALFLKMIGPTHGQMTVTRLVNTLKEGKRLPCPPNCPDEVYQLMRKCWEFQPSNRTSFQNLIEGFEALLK

Row | SMILES | IC50 (JAK1) | IC50 (JAK3) | IC50 (TYK2) | IC50 (JAK2)
1 | CS(=O)(=O)N1CCC(CCNC(=O)c2noc3c2CN(c2ncnc4[nH]ccc24)CC3)C1 (stereo not drawn) [Compound 165] | > 2000 nM | > 2000 nM | > 2000 nM | > 2000 nM
2 | O=C(NCCN1CCC1)c1noc2c1CN(c1ncnc3[nH]ccc13)CC2 [Compound 152] | > 2000 nM | > 2000 nM | > 2000 nM | > 2000 nM
3 | O=C(NC[C@@H]1CC[C@H]1O)c1noc2c1CN(c1ncnc3[nH]ccc13)CC2 (relative stereo) [Compound 150-1] | 500 to 2000 nM | 100 to 500 nM | > 2000 nM | 500 to 2000 nM
4 | CNC(=O)[C@H]1C[C@H](NC(=O)c2nn(C)c3c2CN(c2ncnc4[nH]ccc24)CC3)C1 [Compound 122] | > 2000 nM | > 2000 nM | > 2000 nM | > 2000 nM
5 | CS(=O)(=O)N1CCCC1CCNC(=O)c1noc2c1CN(c1ncnc3[nH]ccc13)CC2 (stereo not drawn) [Compound 164] | 500 to 2000 nM | 100 to 500 nM | > 2000 nM | > 2000 nM
6 | O=C(NCCC(F)(F)F)c1nn(C2CCNCC2)c2c1CN(c1ncnc3[nH]ccc13)CC2 [Compound 101] | > 2000 nM | 500 to 2000 nM | > 2000 nM | > 2000 nM
7 | COC(=O)[C@H]1C[C@H](NC(=O)c2nn(C)c3c2CN(c2ncnc4[nH]ccc24)CC3)C1 [Compound 121] | > 2000 nM | > 2000 nM | > 2000 nM | > 2000 nM
8 | O=C(NCCC(O)C1CCCC1)c1noc2c1CN(c1ncnc3[nH]ccc13)CC2 (stereo not drawn) [Compound 159] | 500 to 2000 nM | 100 to 500 nM | > 2000 nM | > 2000 nM
9 | Cc1cnc(CCNC(=O)c2noc3c2CN(c2ncnc4[nH]ccc24)CC3)o1 [Compound 139] | > 2000 nM | > 2000 nM | > 2000 nM | > 2000 nM
10 | O=C(NCCC(F)(F)F)c1nn(CCCc2ccccc2)c2c1CN(c1ncnc3[nH]ccc13)CC2 [Compound 115] | 500 to 2000 nM | 100 to 500 nM | > 2000 nM | > 2000 nM
11 | O=C(NCCC(F)(F)F)c1nn(C2CCOCC2)c2c1CN(c1ncnc3[nH]ccc13)CC2 [Compound 118] | 500 to 2000 nM | 100 to 500 nM | > 2000 nM | > 2000 nM
12 | CN(C)C1CN(CCNC(=O)c2noc3c2CN(c2ncnc4[nH]ccc24)CC3)C1 [Compound 160] | 500 to 2000 nM | 500 to 2000 nM | > 2000 nM | > 2000 nM
13 | Cn1nc(C(=O)N[C@H]2C[C@H](CC#N)C2)c2c1CCN(c1ncnc3[nH]ccc13)C2 [Compound 128] | 500 to 2000 nM | 500 to 2000 nM | > 2000 nM | 500 to 2000 nM
14 | CN1CCCC1CCNC(=O)c1noc2c1CN(c1ncnc3[nH]ccc13)CC2 (stereo not drawn) [Compound 155] | 500 to 2000 nM | 500 to 2000 nM | > 2000 nM | 500 to 2000 nM

The remaining lines, values ahead:

Row | IC50 (JAK1) | IC50 (JAK3) | IC50 (TYK2) | IC50 (JAK2) | SMILES
15 | 100 to 500 nM | < 100 nM | > 2000 nM | 100 to 500 nM | O=C(NCC1CC1)c1noc2c1CN(c1ncnc3[nH]ccc13)CC2 [Compound 180]
16 | < 100 nM | < 100 nM | > 2000 nM | 100 to 500 nM | CNS(=O)(=O)CCNC(=O)c1noc2c1CN(c1ncnc3[nH]ccc13)CC2 [Compound 157]
17 | 100 to 500 nM | 100 to 500 nM | > 2000 nM | 500 to 2000 nM | O=C(NCCC1CC(F)(F)C1)c1noc2c1CN(c1ncnc3[nH]ccc13)CC2 [Compound 148]
18 | 100 to 500 nM | < 100 nM | > 2000 nM | 100 to 500 nM | O=C(NCC1CCC1O)c1noc2c1CN(c1ncnc3[nH]ccc13)CC2 (stereo not drawn) [Compound 150]
19 | 100 to 500 nM | < 100 nM | 500 to 2000 nM | 100 to 500 nM | O=C(NCCC1CC1)c1n[nH]c2c1CN(c1ncnc3[nH]ccc13)CC2 [Compound 138]
20 | 100 to 500 nM | < 100 nM | > 2000 nM | 100 to 500 nM | O=C(NCCc1ccccc1)c1noc2c1CN(c1ncnc3[nH]ccc13)CC2 [Compound 163]
21 | 500 to 2000 nM | 100 to 500 nM | > 2000 nM | > 2000 nM | O=C(NCCS(=O)(=O)N1CCCCC1)c1noc2c1CN(c1ncnc3[nH]ccc13)CC2 [Compound 136]
22 | 100 to 500 nM | 100 to 500 nM | > 2000 nM | 100 to 500 nM | CSC(CNC(=O)c1noc2c1CN(c1ncnc3[nH]ccc13)CC2)C(F)(F)F (stereo not drawn) [Compound 191]
23 | 500 to 2000 nM | 100 to 500 nM | > 2000 nM | 500 to 2000 nM | CS(=O)(=O)N1CCC(CNC(=O)c2noc3c2CN(c2ncnc4[nH]ccc24)CC3)C1 (stereo not drawn) [Compound 166]
24 | 100 to 500 nM | 100 to 500 nM | > 2000 nM | > 2000 nM | O=C(NCCC(F)(F)F)c1noc2c1CN(c1ncnc3[nH]ncc13)CC2 [Compound 189]
25 | 100 to 500 nM | 500 to 2000 nM | > 2000 nM | 500 to 2000 nM | O=C(NCCC(F)(F)F)n1ccc2c1CN(c1ncnc3[nH]ccc13)CC2 [Compound 132]
26 | 100 to 500 nM | < 100 nM | 500 to 2000 nM | 100 to 500 nM | C=CCn1nc(C(=O)NCCC(F)(F)F)c2c1CCN(c1ncnc3[nH]ccc13)C2 [Compound 113]
27 | 100 to 500 nM | < 100 nM | > 2000 nM | 100 to 500 nM | O=C(NCCCC(F)(F)F)c1noc2c1CN(c1ncnc3[nH]ccc13)CC2 [Compound 154]
28 | 100 to 500 nM | < 100 nM | > 2000 nM | 500 to 2000 nM | O=C(NCCC(F)(F)F)c1nn(C2CCC2)c2c1CN(c1ncnc3[nH]ccc13)CC2 [Compound 117]
29 | 100 to 500 nM | 100 to 500 nM | > 2000 nM | 500 to 2000 nM | O=C(NCCC1COC1)c1noc2c1CN(c1ncnc3[nH]ccc13)CC2 [Compound 146]
30 | 100 to 500 nM | < 100 nM | > 2000 nM | 100 to 500 nM | O=C(NCCC1CCCC1)c1noc2c1CN(c1ncnc3[nH]ccc13)CC2 [Compound 158]
